Assay results: the NIST ThermoML archive (doi:10.1016/j.tca.2014.04.026)
Numbers after ± are expanded uncertainties.

Assay: molar heat capacity at constant pressure; wn = mass fraction of the nth substance listed
Conditions: 101 kPa, Liquid, Small sample (50 mg) DSC

## CCn1cc[n+](C)c1.N#C[C-](C#N)C#N [1-ethyl-3-methyl-1H-imidazolium tricyanomethanide] + CCn1cc[n+](C)c1.N#CN=C=[N-]
296.2 K, w2 = 0
  molar heat capacity at constant pressure: 357 ± 7 J/K/mol
296.2 K, w2 = 0.25
  molar heat capacity at constant pressure: 354 ± 7 J/K/mol
296.2 K, w2 = 0.5
  molar heat capacity at constant pressure: 344 ± 7 J/K/mol
296.2 K, w2 = 0.75
  molar heat capacity at constant pressure: 335 ± 7 J/K/mol
300.2 K, w2 = 0
  molar heat capacity at constant pressure: 360 ± 7 J/K/mol
300.2 K, w2 = 0.25
  molar heat capacity at constant pressure: 355 ± 7 J/K/mol
300.2 K, w2 = 0.5
  molar heat capacity at constant pressure: 346 ± 7 J/K/mol
300.2 K, w2 = 0.75
  molar heat capacity at constant pressure: 338 ± 7 J/K/mol
304.2 K, w2 = 0
  molar heat capacity at constant pressure: 362 ± 7 J/K/mol
304.2 K, w2 = 0.25
  molar heat capacity at constant pressure: 356 ± 7 J/K/mol
304.2 K, w2 = 0.5
  molar heat capacity at constant pressure: 347 ± 7 J/K/mol
304.2 K, w2 = 0.75
  molar heat capacity at constant pressure: 339 ± 7 J/K/mol
308.2 K, w2 = 0
  molar heat capacity at constant pressure: 364 ± 7 J/K/mol
308.2 K, w2 = 0.25
  molar heat capacity at constant pressure: 357 ± 7 J/K/mol
308.2 K, w2 = 0.5
  molar heat capacity at constant pressure: 348 ± 7 J/K/mol
308.2 K, w2 = 0.75
  molar heat capacity at constant pressure: 340 ± 7 J/K/mol
312.2 K, w2 = 0
  molar heat capacity at constant pressure: 366 ± 7 J/K/mol
312.2 K, w2 = 0.25
  molar heat capacity at constant pressure: 358 ± 7 J/K/mol
312.2 K, w2 = 0.5
  molar heat capacity at constant pressure: 350 ± 7 J/K/mol
312.2 K, w2 = 0.75
  molar heat capacity at constant pressure: 342 ± 7 J/K/mol
316.2 K, w2 = 0
  molar heat capacity at constant pressure: 367 ± 7 J/K/mol
316.2 K, w2 = 0.25
  molar heat capacity at constant pressure: 359 ± 7 J/K/mol
316.2 K, w2 = 0.5
  molar heat capacity at constant pressure: 352 ± 7 J/K/mol
316.2 K, w2 = 0.75
  molar heat capacity at constant pressure: 343 ± 7 J/K/mol
320.2 K, w2 = 0
  molar heat capacity at constant pressure: 369 ± 7 J/K/mol
320.2 K, w2 = 0.25
  molar heat capacity at constant pressure: 360 ± 7 J/K/mol
320.2 K, w2 = 0.5
  molar heat capacity at constant pressure: 352 ± 7 J/K/mol
320.2 K, w2 = 0.75
  molar heat capacity at constant pressure: 344 ± 7 J/K/mol
324.2 K, w2 = 0
  molar heat capacity at constant pressure: 370 ± 7 J/K/mol
324.2 K, w2 = 0.25
  molar heat capacity at constant pressure: 361 ± 7 J/K/mol
324.2 K, w2 = 0.5
  molar heat capacity at constant pressure: 354 ± 7 J/K/mol
324.2 K, w2 = 0.75
  molar heat capacity at constant pressure: 345 ± 7 J/K/mol
328.2 K, w2 = 0
  molar heat capacity at constant pressure: 372 ± 7 J/K/mol
328.2 K, w2 = 0.25
  molar heat capacity at constant pressure: 363 ± 7 J/K/mol
328.2 K, w2 = 0.5
  molar heat capacity at constant pressure: 356 ± 7 J/K/mol
328.2 K, w2 = 0.75
  molar heat capacity at constant pressure: 347 ± 7 J/K/mol
332.2 K, w2 = 0
  molar heat capacity at constant pressure: 374 ± 8 J/K/mol
332.2 K, w2 = 0.25
  molar heat capacity at constant pressure: 365 ± 7 J/K/mol
332.2 K, w2 = 0.5
  molar heat capacity at constant pressure: 358 ± 7 J/K/mol
332.2 K, w2 = 0.75
  molar heat capacity at constant pressure: 349 ± 7 J/K/mol
336.2 K, w2 = 0
  molar heat capacity at constant pressure: 377 ± 8 J/K/mol
336.2 K, w2 = 0.25
  molar heat capacity at constant pressure: 367 ± 7 J/K/mol
336.2 K, w2 = 0.5
  molar heat capacity at constant pressure: 360 ± 7 J/K/mol
336.2 K, w2 = 0.75
  molar heat capacity at constant pressure: 352 ± 7 J/K/mol
340.2 K, w2 = 0
  molar heat capacity at constant pressure: 379 ± 8 J/K/mol
340.2 K, w2 = 0.25
  molar heat capacity at constant pressure: 370 ± 7 J/K/mol
340.2 K, w2 = 0.5
  molar heat capacity at constant pressure: 362 ± 7 J/K/mol
340.2 K, w2 = 0.75
  molar heat capacity at constant pressure: 354 ± 7 J/K/mol
344.2 K, w2 = 0
  molar heat capacity at constant pressure: 382 ± 8 J/K/mol
344.2 K, w2 = 0.25
  molar heat capacity at constant pressure: 372 ± 7 J/K/mol
344.2 K, w2 = 0.5
  molar heat capacity at constant pressure: 365 ± 7 J/K/mol
344.2 K, w2 = 0.75
  molar heat capacity at constant pressure: 356 ± 7 J/K/mol
348.2 K, w2 = 0
  molar heat capacity at constant pressure: 384 ± 8 J/K/mol
348.2 K, w2 = 0.25
  molar heat capacity at constant pressure: 374 ± 8 J/K/mol
348.2 K, w2 = 0.5
  molar heat capacity at constant pressure: 367 ± 7 J/K/mol
348.2 K, w2 = 0.75
  molar heat capacity at constant pressure: 359 ± 7 J/K/mol
352.2 K, w2 = 0
  molar heat capacity at constant pressure: 387 ± 8 J/K/mol
352.2 K, w2 = 0.25
  molar heat capacity at constant pressure: 377 ± 8 J/K/mol
352.2 K, w2 = 0.5
  molar heat capacity at constant pressure: 370 ± 7 J/K/mol
352.2 K, w2 = 0.75
  molar heat capacity at constant pressure: 362 ± 7 J/K/mol
356.2 K, w2 = 0
  molar heat capacity at constant pressure: 390 ± 8 J/K/mol
356.2 K, w2 = 0.25
  molar heat capacity at constant pressure: 381 ± 8 J/K/mol
356.2 K, w2 = 0.5
  molar heat capacity at constant pressure: 373 ± 7 J/K/mol
356.2 K, w2 = 0.75
  molar heat capacity at constant pressure: 365 ± 7 J/K/mol
360.2 K, w2 = 0
  molar heat capacity at constant pressure: 393 ± 8 J/K/mol
360.2 K, w2 = 0.25
  molar heat capacity at constant pressure: 383 ± 8 J/K/mol
360.2 K, w2 = 0.5
  molar heat capacity at constant pressure: 376 ± 8 J/K/mol
360.2 K, w2 = 0.75
  molar heat capacity at constant pressure: 368 ± 7 J/K/mol
364.2 K, w2 = 0
  molar heat capacity at constant pressure: 396 ± 8 J/K/mol
364.2 K, w2 = 0.25
  molar heat capacity at constant pressure: 385 ± 8 J/K/mol
364.2 K, w2 = 0.5
  molar heat capacity at constant pressure: 380 ± 8 J/K/mol
364.2 K, w2 = 0.75
  molar heat capacity at constant pressure: 371 ± 7 J/K/mol
368.2 K, w2 = 0
  molar heat capacity at constant pressure: 399 ± 8 J/K/mol
368.2 K, w2 = 0.25
  molar heat capacity at constant pressure: 388 ± 8 J/K/mol
368.2 K, w2 = 0.5
  molar heat capacity at constant pressure: 383 ± 8 J/K/mol
368.2 K, w2 = 0.75
  molar heat capacity at constant pressure: 374 ± 8 J/K/mol
372.2 K, w2 = 0
  molar heat capacity at constant pressure: 403 ± 8 J/K/mol
372.2 K, w2 = 0.25
  molar heat capacity at constant pressure: 391 ± 8 J/K/mol
372.2 K, w2 = 0.5
  molar heat capacity at constant pressure: 387 ± 8 J/K/mol
372.2 K, w2 = 0.75
  molar heat capacity at constant pressure: 378 ± 8 J/K/mol
